Test results as given in ChEMBL document CHEMBL1201862, “PubChem BioAssay data set” (2004).
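Grown in 96-well plates, cells were treated for 48 hours with each compound at five concentrations. Insufficient inhibition: endpoint recorded as highest concentration tested. GI50 is the concentration that inhibits growth by half.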 Active and inactive are the calls of the source. No stated cut-off is given here; in the data, active = GI50 up to about 1.1 µM and inactive = higher.

Key:
Assay in all cases: NCI tumour cell line growth inhibition, 48 h
786-0 = system: 786-0
ACHN = system: ACHN
COLO 205 = system: COLO 205
DU-145 = system: DU-145
HCC 2998 = system: HCC 2998
HOP-62 = system: HOP-62
IGROV-1 = system: IGROV-1
KM12 = system: KM12
LOX IMVI = system: LOX IMVI
M14 = system: M14
MDA-N = system: MDA-N
MOLT-4 = system: MOLT-4
NCI-H226 = system: NCI-H226
OVCAR-3 = system: OVCAR-3
OVCAR-4 = system: OVCAR-4
OVCAR-5 = system: OVCAR-5
SK-MEL-28 = system: SK-MEL-28
SR = system: SR
TK-10 = system: TK-10
UACC-257 = system: UACC-257

SMILES	GI50 (786-0)	GI50 (ACHN)	GI50 (COLO 205)	GI50 (DU-145)	GI50 (HCC 2998)	GI50 (HOP-62)	GI50 (IGROV-1)	GI50 (KM12)	GI50 (LOX IMVI)	GI50 (M14)	GI50 (MDA-N)	GI50 (MOLT-4)	GI50 (NCI-H226)	GI50 (OVCAR-3)	GI50 (OVCAR-4)	GI50 (OVCAR-5)	GI50 (SK-MEL-28)	GI50 (SR)	GI50 (TK-10)	GI50 (UACC-257)
COc1cccc2c(Nc3ccc(S(=O)(=O)N=C(N)N)cc3)c3ccc([N+](=O)[O-])cc3nc12	11.5 µM (inactive)	10.2 µM (inactive)	18.8 µM (inactive)	8.67 µM (inactive)	3.23 µM (inactive)	15.7 µM (inactive)	8.2 µM (inactive)	3.99 µM (inactive)	11.4 µM (inactive)	16.3 µM (inactive)	17.6 µM (inactive)	2.29 µM (inactive)	38.8 µM (inactive)	20.4 µM (inactive)	37.7 µM (inactive)	44.6 µM (inactive)	35.2 µM (inactive)	11.3 µM (inactive)	25.6 µM (inactive)	17.4 µM (inactive)
CC1(C)CCc2c(cc3c(c2O)CCC(C)(C)O3)O1	> 10 µM (inactive)	> 100 µM (inactive)	> 100 µM (inactive)	> 100 µM (inactive)	> 100 µM (inactive)	> 100 µM (inactive)	> 100 µM (inactive)	> 100 µM (inactive)	–	> 100 µM (inactive)	> 100 µM (inactive)	62.4 µM (inactive)	> 100 µM (inactive)	> 100 µM (inactive)	> 100 µM (inactive)	> 100 µM (inactive)	> 100 µM (inactive)	76.6 µM (inactive)	> 100 µM (inactive)	> 100 µM (inactive)
c1cc(-c2ccc(-c3ccsc3)s2)cs1	36.1 µM (inactive)	35.9 µM (inactive)	> 100 µM (inactive)	> 100 µM (inactive)	> 100 µM (inactive)	39.6 µM (inactive)	80.2 µM (inactive)	> 10 µM (inactive)	66.7 µM (inactive)	31 µM (inactive)	> 100 µM (inactive)	70.6 µM (inactive)	47.5 µM (inactive)	> 100 µM (inactive)	18.1 µM (inactive)	> 100 µM (inactive)	–	28.2 µM (inactive)	76.4 µM (inactive)	> 100 µM (inactive)
N#CC1C(=O)Nc2sc(C(=O)c3ccc(Br)cc3)c(N)c2C12CCCCC2 (configuration not stated)	31.4 µM (inactive)	35.6 µM (inactive)	13.7 µM (inactive)	23.8 µM (inactive)	22.5 µM (inactive)	38.5 µM (inactive)	20.2 µM (inactive)	13.4 µM (inactive)	24.1 µM (inactive)	13.3 µM (inactive)	17 µM (inactive)	18.5 µM (inactive)	7.8 µM (inactive)	9.66 µM (inactive)	18 µM (inactive)	40.5 µM (inactive)	16 µM (inactive)	7.96 µM (inactive)	33.2 µM (inactive)	23.6 µM (inactive)
O=C1CCCCC/C1=C\c1ccccc1	> 100 µM (inactive)	> 100 µM (inactive)	> 100 µM (inactive)	> 100 µM (inactive)	> 100 µM (inactive)	> 100 µM (inactive)	> 100 µM (inactive)	> 100 µM (inactive)	> 100 µM (inactive)	> 100 µM (inactive)	> 100 µM (inactive)	80.9 µM (inactive)	67.1 µM (inactive)	> 100 µM (inactive)	67.6 µM (inactive)	> 100 µM (inactive)	> 100 µM (inactive)	> 100 µM (inactive)	> 100 µM (inactive)	> 100 µM (inactive)
CCOC(=O)c1cc(C)nc2c1c(=O)n(-c1ccccc1)c(=O)n2CCCCN1CCN(c2ncccn2)CC1	> 100 µM (inactive)	> 100 µM (inactive)	60.1 µM (inactive)	> 100 µM (inactive)	> 100 µM (inactive)	> 100 µM (inactive)	> 100 µM (inactive)	> 100 µM (inactive)	56.9 µM (inactive)	> 100 µM (inactive)	> 100 µM (inactive)	11.3 µM (inactive)	> 100 µM (inactive)	94 µM (inactive)	–	> 100 µM (inactive)	> 100 µM (inactive)	29.9 µM (inactive)	> 100 µM (inactive)	52.4 µM (inactive)
NCCNc1nc(N2CCCC2)c2nc(Cl)c(NCc3ccccc3)nc2n1	1.77 µM (inactive)	1.95 µM (inactive)	1.69 µM (inactive)	1.61 µM (inactive)	1.51 µM (inactive)	1.67 µM (inactive)	1.66 µM (inactive)	1.71 µM (inactive)	1.56 µM (inactive)	1.67 µM (inactive)	1.67 µM (inactive)	2.13 µM (inactive)	3.15 µM (inactive)	1.68 µM (inactive)	2.16 µM (inactive)	2.44 µM (inactive)	1.79 µM (inactive)	1.57 µM (inactive)	1.67 µM (inactive)	1.9 µM (inactive)
Cc1nnc2cc(C(=O)O)c3ccccc3n2c1=O	> 10 µM (inactive)	–	> 10 µM (inactive)	> 10 µM (inactive)	> 10 µM (inactive)	> 10 µM (inactive)	> 10 µM (inactive)	–	> 10 µM (inactive)	> 10 µM (inactive)	> 10 µM (inactive)	> 10 µM (inactive)	> 10 µM (inactive)	> 10 µM (inactive)	> 10 µM (inactive)	> 10 µM (inactive)	> 10 µM (inactive)	> 10 µM (inactive)	> 10 µM (inactive)	> 10 µM (inactive)
Cc1ccc([S+]([O-])(=Nc2ccccc2)C(C(C)C)C(C)(C)Cl)cc1 (configuration not stated)	24.2 µM (inactive)	31.6 µM (inactive)	0.91 µM (active)	> 50 µM (inactive)	21.6 µM (inactive)	> 50 µM (inactive)	> 50 µM (inactive)	13.5 µM (inactive)	25.2 µM (inactive)	18.9 µM (inactive)	16 µM (inactive)	10.5 µM (inactive)	2.72 µM (inactive)	29.6 µM (inactive)	22.2 µM (inactive)	22.1 µM (inactive)	–	16.1 µM (inactive)	21.4 µM (inactive)	10.8 µM (inactive)
N#Cc1nc(CCc2nc(C#N)c(N)o2)oc1N	> 10 µM (inactive)	> 10 µM (inactive)	> 10 µM (inactive)	> 10 µM (inactive)	> 10 µM (inactive)	> 10 µM (inactive)	> 10 µM (inactive)	> 10 µM (inactive)	> 10 µM (inactive)	> 10 µM (inactive)	> 10 µM (inactive)	> 10 µM (inactive)	> 10 µM (inactive)	–	> 10 µM (inactive)	> 10 µM (inactive)	> 10 µM (inactive)	> 10 µM (inactive)	> 10 µM (inactive)	> 10 µM (inactive)
N#Cc1c(N2CCOCC2)ncn(-c2ccccc2)c1=O	> 100 µM (inactive)	> 100 µM (inactive)	> 100 µM (inactive)	> 100 µM (inactive)	> 100 µM (inactive)	> 100 µM (inactive)	63.4 µM (inactive)	> 100 µM (inactive)	> 100 µM (inactive)	> 100 µM (inactive)	> 100 µM (inactive)	> 100 µM (inactive)	> 100 µM (inactive)	> 100 µM (inactive)	–	> 100 µM (inactive)	> 100 µM (inactive)	> 100 µM (inactive)	–	> 100 µM (inactive)
C(=C/c1nnnn1-c1ccccc1)/Nc1ccccc1	39.2 µM (inactive)	28.1 µM (inactive)	33.7 µM (inactive)	24.7 µM (inactive)	21.7 µM (inactive)	25.4 µM (inactive)	35.2 µM (inactive)	31.6 µM (inactive)	28.1 µM (inactive)	26.1 µM (inactive)	22 µM (inactive)	21.7 µM (inactive)	19.1 µM (inactive)	27.2 µM (inactive)	–	24.8 µM (inactive)	78.7 µM (inactive)	> 10 µM (inactive)	34.4 µM (inactive)	36.5 µM (inactive)
Clc1ccc(-c2cc3nc4ccccc4nc3o2)cc1	37.1 µM (inactive)	25.4 µM (inactive)	> 100 µM (inactive)	> 100 µM (inactive)	> 100 µM (inactive)	–	62.8 µM (inactive)	> 100 µM (inactive)	> 100 µM (inactive)	> 100 µM (inactive)	> 100 µM (inactive)	> 100 µM (inactive)	> 100 µM (inactive)	> 100 µM (inactive)	> 100 µM (inactive)	> 100 µM (inactive)	> 100 µM (inactive)	> 100 µM (inactive)	32.7 µM (inactive)	34.8 µM (inactive)
COc1ccc(N2C(=O)C3CC4=CC(=O)C[C@H]4[C@H]32)cc1 (some centres not stated)	26.3 µM (inactive)	53.7 µM (inactive)	52.5 µM (inactive)	75.9 µM (inactive)	45.1 µM (inactive)	44.9 µM (inactive)	–	44 µM (inactive)	53.1 µM (inactive)	> 100 µM (inactive)	18.5 µM (inactive)	> 100 µM (inactive)	42.8 µM (inactive)	57.7 µM (inactive)	> 100 µM (inactive)	88.1 µM (inactive)	> 100 µM (inactive)	55.7 µM (inactive)	58.7 µM (inactive)	64.9 µM (inactive)
O=C1N2CCN=C2c2ccccc2C1(O)c1ccccc1 (configuration not stated)	> 100 µM (inactive)	> 100 µM (inactive)	> 100 µM (inactive)	> 100 µM (inactive)	> 100 µM (inactive)	> 100 µM (inactive)	> 100 µM (inactive)	> 100 µM (inactive)	> 100 µM (inactive)	> 100 µM (inactive)	> 100 µM (inactive)	> 100 µM (inactive)	> 100 µM (inactive)	–	> 100 µM (inactive)	> 100 µM (inactive)	> 100 µM (inactive)	> 100 µM (inactive)	> 100 µM (inactive)	> 100 µM (inactive)
